From patent publication US20260124158A1, “COMPOSITIONS AND METHODS TO REDUCE BIOLOGICAL AGE OF AN ADULT ANIMAL” (Société des Produits Nestlé S.A., priority 2022, published 2026)

Columns and labels:
[1] = tested on: muscle gastrocnemius of old mice; assay: Muscle biological age by DNA methylation, pan tissue clock, in old mice; format: in vivo, mouse
Source text: (§1) All animal experiments comply with the International Guiding Principles for Biomedical Research Involving Animals developed by the Council for International Organizations of Medical Sciences and the following guidelines for animal welfare. 24 old mice aged 18 months and 12 young mice aged 6 months were kept in a temperature-and humidity-controlled environment with a 12:12-h light-dark cycle. Mice had access to nesting and enrichment materials and were provided with ad libitum access to water and food.
(§2) Old mice were split in two groups and received either 20 mg/kg body weight of thymol or vehicle by gavage daily for 12 weeks, whereas young mice received the vehicle only (n=12). Animals found dead or euthanized at the humane endpoint for pain or physical distress, have been excluded from the analysis. At the end of the treatment, mice were euthanized with isoflurane after 2-hours fasting. Muscle gastrocnemius has been dissected samples and snap frozen in liquid nitrogen and stored at −80° C.
(§3) DNA extraction was performed on 100 mg of muscle using QIAGEN DNeasy Blood and Tissue kit (Cat. No: 69506) and following manufacturer recommendations. DNA was quantified using the DropSense technology (from Unchained Labs). […]
(§4) To calculate biological age, raw data have been analysed using algorithms (clocks) developed by the Clock Foundation. […] Data were plotted and analysed using GraphPad Prism 9. […]

[2] = tested on: muscle gastrocnemius of old mice; assay: Muscle biological age by DNA methylation, intervention muscle clock, in old mice; format: in vivo, mouse; settings: 20 mg/kg/day for 12 weeks
Source text: as §1, §2, §3, §4

Which “reduction of muscle biological age measured with the pan tissue clock” value ([1]; 20 mg/kg/day by gavage daily for 12 weeks, vs old vehicle) does the source give for Cc1ccc(C(C)C)c(O)c1 [thymol] here?
The value was 20.3%.

What about the “effect on biological age in old mice” value ([1]; 20 mg/kg/day for 12 weeks) of the same molecule?
Its value is “significantly reduced biological age in old mice”.

What about the “effects on biological age using the interventions muscle clock” value [2] of the same molecule?
The value was “confirmed”.
